Laboratory results: US11981658B2, “Substituted aminopyridine compounds as EGFR inhibitors” (YUHAN CORPORATION, priority 2021, dated 2024)
Counter-ions that a name gives are not always drawn. Like-named read-outs stand apart in the source and are kept apart here.

Tests used:
EGFR L858R/C797S = EGFR L858R/C797S (Homo sapiens, UniProt P00533, C797S/L858R); experiment: Biochemical EGFR kinase inhibition assay (Lance Ultra TR-FRET), double mutant L858R/C797S
In short: (§1)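 Enzyme reactions lasted 1 hour at room temperature with test compounds between 0.003 and 10 μM, followed by 10 mM EDTA quench.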

EGFR Del19/C797S = EGFR Del19/C797S (Homo sapiens, UniProt P00533, C797S/DEL746-750); experiment: Biochemical EGFR kinase inhibition assay (Lance Ultra TR-FRET), double mutant del19/C797S
Sequence of EGFR Del19/C797S (P00533 with tags, fused parts or gaps DEL746-750/C797S): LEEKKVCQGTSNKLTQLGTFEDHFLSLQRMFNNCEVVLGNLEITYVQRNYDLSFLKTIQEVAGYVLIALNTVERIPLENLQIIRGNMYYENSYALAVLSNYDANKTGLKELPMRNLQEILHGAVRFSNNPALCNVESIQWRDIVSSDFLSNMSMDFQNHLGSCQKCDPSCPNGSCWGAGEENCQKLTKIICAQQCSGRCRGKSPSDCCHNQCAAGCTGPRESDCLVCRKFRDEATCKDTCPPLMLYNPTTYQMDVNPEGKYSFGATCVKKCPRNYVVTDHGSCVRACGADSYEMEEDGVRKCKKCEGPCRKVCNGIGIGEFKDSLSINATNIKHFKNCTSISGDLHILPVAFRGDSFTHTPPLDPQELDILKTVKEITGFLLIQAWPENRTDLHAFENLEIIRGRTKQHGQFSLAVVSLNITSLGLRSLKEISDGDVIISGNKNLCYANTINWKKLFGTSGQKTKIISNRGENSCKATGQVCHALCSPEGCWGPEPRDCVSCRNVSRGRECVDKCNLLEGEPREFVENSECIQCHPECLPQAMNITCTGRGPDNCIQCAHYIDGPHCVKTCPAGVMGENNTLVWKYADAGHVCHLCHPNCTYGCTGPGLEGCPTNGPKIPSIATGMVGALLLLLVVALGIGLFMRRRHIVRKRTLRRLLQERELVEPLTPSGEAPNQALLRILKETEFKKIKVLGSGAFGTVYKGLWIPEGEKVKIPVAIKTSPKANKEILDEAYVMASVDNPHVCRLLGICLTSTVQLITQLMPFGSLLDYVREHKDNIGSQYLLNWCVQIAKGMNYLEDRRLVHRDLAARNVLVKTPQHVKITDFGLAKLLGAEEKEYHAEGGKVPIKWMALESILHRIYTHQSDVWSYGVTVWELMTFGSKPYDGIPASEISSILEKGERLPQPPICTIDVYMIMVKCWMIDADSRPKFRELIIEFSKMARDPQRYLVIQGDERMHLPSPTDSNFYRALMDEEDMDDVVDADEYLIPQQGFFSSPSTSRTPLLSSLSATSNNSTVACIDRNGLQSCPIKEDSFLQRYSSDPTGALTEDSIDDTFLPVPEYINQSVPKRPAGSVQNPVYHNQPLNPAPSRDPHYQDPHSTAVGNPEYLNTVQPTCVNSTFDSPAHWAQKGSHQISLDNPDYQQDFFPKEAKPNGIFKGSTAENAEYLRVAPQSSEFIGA
In short: as §1

EGFR L858R/T790M/C797S = EGFR L858R/T790M/C797S (Homo sapiens, UniProt P00533, C797S/L858R/T790M); experiment: Biochemical EGFR kinase inhibition assay (Lance Ultra TR-FRET), triple mutant L858R/T790M/C797S
Sequence of EGFR L858R/T790M/C797S (P00533 25-1210 T790M/C797S/L858R): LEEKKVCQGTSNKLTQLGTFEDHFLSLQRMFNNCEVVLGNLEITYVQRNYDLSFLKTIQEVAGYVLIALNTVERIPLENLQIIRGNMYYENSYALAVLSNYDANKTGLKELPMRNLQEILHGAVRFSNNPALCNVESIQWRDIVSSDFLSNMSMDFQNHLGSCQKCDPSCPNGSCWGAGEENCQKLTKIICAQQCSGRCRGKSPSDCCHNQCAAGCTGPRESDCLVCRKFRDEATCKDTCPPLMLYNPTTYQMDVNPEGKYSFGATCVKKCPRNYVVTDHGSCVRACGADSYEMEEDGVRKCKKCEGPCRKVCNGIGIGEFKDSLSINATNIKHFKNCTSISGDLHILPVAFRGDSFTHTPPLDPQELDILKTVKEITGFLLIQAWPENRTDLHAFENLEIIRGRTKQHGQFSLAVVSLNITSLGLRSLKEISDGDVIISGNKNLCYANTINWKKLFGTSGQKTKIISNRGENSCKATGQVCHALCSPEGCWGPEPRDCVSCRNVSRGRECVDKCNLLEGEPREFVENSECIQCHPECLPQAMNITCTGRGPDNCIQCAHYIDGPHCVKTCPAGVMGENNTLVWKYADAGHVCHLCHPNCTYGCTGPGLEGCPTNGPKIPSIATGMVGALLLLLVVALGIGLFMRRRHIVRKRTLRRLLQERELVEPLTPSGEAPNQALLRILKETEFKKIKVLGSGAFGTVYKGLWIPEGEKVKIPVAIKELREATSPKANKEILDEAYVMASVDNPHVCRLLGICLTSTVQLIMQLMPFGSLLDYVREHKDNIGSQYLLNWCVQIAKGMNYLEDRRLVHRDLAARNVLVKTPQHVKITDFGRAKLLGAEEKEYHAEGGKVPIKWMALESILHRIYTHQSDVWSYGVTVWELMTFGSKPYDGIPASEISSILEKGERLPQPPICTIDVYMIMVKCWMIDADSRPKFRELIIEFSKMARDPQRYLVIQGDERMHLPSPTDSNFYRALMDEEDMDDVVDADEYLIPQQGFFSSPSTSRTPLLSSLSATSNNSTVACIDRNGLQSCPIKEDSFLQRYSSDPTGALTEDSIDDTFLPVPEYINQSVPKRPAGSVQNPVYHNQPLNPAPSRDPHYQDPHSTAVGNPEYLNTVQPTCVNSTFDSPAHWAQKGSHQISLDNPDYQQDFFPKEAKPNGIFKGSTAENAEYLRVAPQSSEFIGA
In short: as §1

EGFR wildtype (WT) = EGFR wildtype (WT) (Homo sapiens, UniProt P00533); experiment: Biochemical EGFR kinase inhibition assay (Lance Ultra TR-FRET), wildtype
Sequence of EGFR wildtype (WT) (P00533 25-1210): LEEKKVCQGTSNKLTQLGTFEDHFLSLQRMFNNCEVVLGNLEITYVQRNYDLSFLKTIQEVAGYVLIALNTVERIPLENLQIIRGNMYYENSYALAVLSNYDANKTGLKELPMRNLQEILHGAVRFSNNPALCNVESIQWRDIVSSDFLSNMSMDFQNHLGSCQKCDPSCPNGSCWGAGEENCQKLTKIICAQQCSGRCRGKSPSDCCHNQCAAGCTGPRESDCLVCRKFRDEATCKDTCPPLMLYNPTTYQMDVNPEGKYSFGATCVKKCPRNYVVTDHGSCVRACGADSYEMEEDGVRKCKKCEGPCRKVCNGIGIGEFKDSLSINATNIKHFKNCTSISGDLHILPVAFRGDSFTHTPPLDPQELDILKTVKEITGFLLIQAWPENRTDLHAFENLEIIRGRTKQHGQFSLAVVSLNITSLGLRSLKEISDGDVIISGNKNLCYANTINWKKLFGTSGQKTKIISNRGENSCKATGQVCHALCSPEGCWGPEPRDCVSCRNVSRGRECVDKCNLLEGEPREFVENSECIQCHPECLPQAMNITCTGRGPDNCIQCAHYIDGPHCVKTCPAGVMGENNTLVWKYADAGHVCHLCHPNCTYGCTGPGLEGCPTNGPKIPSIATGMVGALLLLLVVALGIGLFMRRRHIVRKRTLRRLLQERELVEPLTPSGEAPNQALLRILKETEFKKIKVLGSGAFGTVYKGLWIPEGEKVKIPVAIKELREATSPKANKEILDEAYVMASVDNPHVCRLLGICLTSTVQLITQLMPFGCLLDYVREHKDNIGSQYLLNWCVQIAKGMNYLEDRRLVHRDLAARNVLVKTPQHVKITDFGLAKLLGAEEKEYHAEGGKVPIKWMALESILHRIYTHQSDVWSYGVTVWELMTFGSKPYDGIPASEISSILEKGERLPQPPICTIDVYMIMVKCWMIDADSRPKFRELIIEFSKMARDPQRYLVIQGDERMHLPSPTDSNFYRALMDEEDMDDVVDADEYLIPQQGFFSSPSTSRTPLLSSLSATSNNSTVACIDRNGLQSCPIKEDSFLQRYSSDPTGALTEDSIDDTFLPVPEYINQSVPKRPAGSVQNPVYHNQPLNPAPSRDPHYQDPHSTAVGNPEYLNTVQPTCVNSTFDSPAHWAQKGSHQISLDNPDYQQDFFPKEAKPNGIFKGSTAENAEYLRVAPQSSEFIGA
In short: as §1

EGFR Del19/T790M/C797S = EGFR Del19/T790M/C797S (Homo sapiens, UniProt P00533, C797S/DEL746-750/T790M); experiment: Biochemical EGFR kinase inhibition assay (Lance Ultra TR-FRET), triple mutant del19/T790M/C797S
Sequence of EGFR Del19/T790M/C797S (P00533 with tags, fused parts or gaps DEL746-750/T790M/C797S): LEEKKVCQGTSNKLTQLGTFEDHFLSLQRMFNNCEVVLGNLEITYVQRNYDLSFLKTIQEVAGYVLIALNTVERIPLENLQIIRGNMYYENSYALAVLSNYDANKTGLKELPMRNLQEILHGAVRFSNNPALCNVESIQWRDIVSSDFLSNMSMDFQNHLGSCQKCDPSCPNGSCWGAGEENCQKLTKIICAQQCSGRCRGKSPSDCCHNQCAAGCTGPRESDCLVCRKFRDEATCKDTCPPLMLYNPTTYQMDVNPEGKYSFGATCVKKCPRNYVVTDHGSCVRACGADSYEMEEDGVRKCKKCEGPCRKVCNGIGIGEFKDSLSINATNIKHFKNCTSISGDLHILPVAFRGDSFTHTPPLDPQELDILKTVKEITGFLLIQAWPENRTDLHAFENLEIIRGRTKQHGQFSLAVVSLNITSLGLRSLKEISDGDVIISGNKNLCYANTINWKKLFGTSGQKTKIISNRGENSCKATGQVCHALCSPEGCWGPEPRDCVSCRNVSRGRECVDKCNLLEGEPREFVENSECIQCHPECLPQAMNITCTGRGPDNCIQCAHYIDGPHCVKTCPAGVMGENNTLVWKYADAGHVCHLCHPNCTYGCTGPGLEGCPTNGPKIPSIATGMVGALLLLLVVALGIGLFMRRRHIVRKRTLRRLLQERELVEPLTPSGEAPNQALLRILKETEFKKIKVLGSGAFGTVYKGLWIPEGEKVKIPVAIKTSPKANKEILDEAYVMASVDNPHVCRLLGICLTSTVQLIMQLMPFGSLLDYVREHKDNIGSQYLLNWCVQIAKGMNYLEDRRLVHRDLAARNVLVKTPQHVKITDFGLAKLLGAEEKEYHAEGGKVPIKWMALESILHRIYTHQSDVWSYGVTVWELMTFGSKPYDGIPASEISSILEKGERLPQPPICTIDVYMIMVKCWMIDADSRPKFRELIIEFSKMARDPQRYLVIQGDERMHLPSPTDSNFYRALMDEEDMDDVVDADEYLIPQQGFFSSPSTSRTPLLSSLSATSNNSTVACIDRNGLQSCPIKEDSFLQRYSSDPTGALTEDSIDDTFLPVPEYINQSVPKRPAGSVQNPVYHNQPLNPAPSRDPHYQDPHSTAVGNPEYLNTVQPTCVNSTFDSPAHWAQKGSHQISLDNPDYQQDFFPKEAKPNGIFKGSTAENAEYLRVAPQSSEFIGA
In short: as §1

[1] = ATP at Km, read-out: IC50 L858R/C797S (nM), Km ATP
[2] = IC50 L858R/C797S (nM), 100 μM ATP
[3] = ATP at Km, read-out: IC50 Del19/C797S (nM), Km ATP
[4] = IC50 Del19/C797S (nM), 100 μM ATP
[5] = ATP at Km, read-out: IC50 L858R/T790M/C797S (nM), Km ATP
[6] = IC50 L858R/T790M/C797S (nM), 100 μM ATP
[7] = ATP at Km, read-out: IC50 WT (nM), Km ATP
[8] = ATP at Km, read-out: IC50 Del19/T790M/C797S (nM), Km ATP
[9] = IC50 Del19/T790M/C797S (nM), 100 μM ATP

SMILES | IC50 (EGFR L858R/C797S; [1]) [nM] | IC50 (EGFR L858R/C797S; [2]) [nM] | IC50 (EGFR Del19/C797S; [3]) [nM] | IC50 (EGFR Del19/C797S; [4]) [nM] | IC50 (EGFR L858R/T790M/C797S; [5]) [nM] | IC50 (EGFR L858R/T790M/C797S; [6]) [nM] | IC50 (EGFR wildtype (WT); [7]) [nM] | IC50 (EGFR wildtype (WT); IC50 WT (nM), 100 μM ATP) [nM] | IC50 (EGFR Del19/T790M/C797S; [8]) [nM] | IC50 (EGFR Del19/T790M/C797S; [9]) [nM]
CN(C)CCC1CCN(c2cc(Nc3ccnc(-c4cnn(S(=O)(=O)C5CC5)c4)n3)ncc2C#Cc2cnn(C)c2)CC1 [Example 294, 2-(1-(Cyclopropylsulfonyl)-1H-pyrazol-4-yl)-N-(4-(4-(2-(dimethylamino)ethyl)piperidin-1-yl)-5-((1-methyl-1H-pyrazol-4-yl)ethynyl)pyridin-2-yl)pyrimidin-4-amine formate] | 0.3 | 1.6 | 0.2 | 0.2 | 0.1 | 0.1 | 0.6 | 351 | 0.1 | 0.1
CN(C)CC1CCN(c2cc(Nc3ccnc(-c4cnn(S(=O)(=O)C5CC5)c4)n3)ncc2C#Cc2cnn(C)c2)CC1 [Example 295, 2-(1-(Cyclopropylsulfonyl)-1H-pyrazol-4-yl)-N-(4-(4-((dimethylamino)methyl)piperidin-1-yl)-5-((1-methyl-1H-pyrazol-4-yl)ethynyl)pyridin-2-yl)pyrimidin-4-amine] | – | 68.2 | – | 9.9 | – | 2.4 | – | > 10000 | – | 0.8
CN(C)CC1(C)CCN(c2cc(Nc3ccnc(-c4cnn(S(=O)(=O)C5CC5)c4)n3)ncc2C#Cc2cnn(C)c2)CC1 [Example 296, 2-(1-(Cyclopropylsulfonyl)-1H-pyrazol-4-yl)-N-(4-(4-((dimethylamino)methyl)-4-methylpiperidin-1-yl)-5-((1-methyl-1H-pyrazol-4-yl)ethynyl)pyridin-2-yl)pyrimidin-4-amine] | 1.4 | 9 | 0.6 | 0.6 | 0.1 | 0.3 | 4.4 | 3250 | 0.1 | 0.1
CN1CCC2(CCN(c3cc(Nc4ccnc(-c5cnn(S(=O)(=O)C6CC6)c5)n4)ncc3C#Cc3cnn(C)c3)CC2)C1 [Example 297, 2-(1-(Cyclopropylsulfonyl)-1H-pyrazol-4-yl)-N-(5-((1-methyl-1H-pyrazol-4-yl)ethynyl)-4-(2-methyl-2,8-diazaspiro[4.5]decan-8-yl)pyridin-2-yl)pyrimidin-4-amine formate] | 1 | 38.1 | 1.2 | 3.2 | 0.1 | 0.2 | 4.1 | 4180 | 0.1 | 0.1
CN(C)CC1CCN(c2cc(Nc3ccnc(-c4cnn(S(=O)(=O)C5CC5)c4)n3)ncc2C#Cc2cnn(C3CC3)c2)CC1 [Example 298, N-(5-((1-Cyclopropyl-1H-pyrazol-4-yl)ethynyl)-4-(4-((dimethylamino)methyl)piperidin-1-yl)pyridin-2-yl)-2-(1-(cyclopropylsulfonyl)-1H-pyrazol-4-yl)pyrimidin-4-amine] | 18.5 | 140 | 5.3 | 12 | 0.4 | 1.5 | 23 | > 10000 | 0.3 | 0.4
CN(C)CC1(C)CCN(c2cc(Nc3ccnc(-c4cnn(S(=O)(=O)C5CC5)c4)n3)ncc2C#Cc2cnn(C3CC3)c2)CC1 [Example 299, N-(5-((1-Cyclopropyl-1H-pyrazol-4-yl)ethynyl)-4-(4-((dimethylamino)methyl)-4-methylpiperidin-1-yl)pyridin-2-yl)-2-(1-(cyclopropylsulfonyl)-1H-pyrazol-4-yl)pyrimidin-4-amine] | 1.4 | 17.2 | 1.1 | 1 | 0.1 | 0.2 | 4.7 | 7510 | 0.2 | 0.2
CN(C)CC1(F)CCN(c2cc(Nc3ccnc(-c4cnn(S(=O)(=O)C5CC5)c4)n3)ncc2C#Cc2cnn(C3CC3)c2)CC1 [Example 300, N-(5-((1-Cyclopropyl-1H-pyrazol-4-yl)ethynyl)-4-(4-((dimethylamino)methyl)-4-fluoropiperidin-1-yl)pyridin-2-yl)-2-(1-(cyclopropylsulfonyl)-1H-pyrazol-4-yl)pyrimidin-4-amine] | 13.5 | 288 | 3.3 | 10.3 | 1.1 | 1.5 | 26.8 | > 10000 | 0.9 | 0.9
CN(C)CC1CCN(c2cc(Nc3ccnc(-c4cnn(S(=O)(=O)C5CC5)c4)n3)ncc2C#Cc2cnn(CC(F)F)c2)CC1 [Example 301, 2-(1-(Cyclopropylsulfonyl)-1H-pyrazol-4-yl)-N-(5-((1-(2,2-difluoroethyl)-1H-pyrazol-4-yl)ethynyl)-4-(4-((dimethylamino)methyl)piperidin-1-yl)pyridin-2-yl)pyrimidin-4-amine] | 11.2 | 138 | 7.2 | 4.9 | 0.6 | 1.4 | 22.9 | > 10000 | 0.6 | 0.7
CN(C)CC1(C)CCN(c2cc(Nc3ccnc(-c4cnn(S(=O)(=O)C5CC5)c4)n3)ncc2C#Cc2cnn(CC(F)F)c2)CC1 [Example 302, 2-(1-(Cyclopropylsulfonyl)-1H-pyrazol-4-yl)-N-(5-((1-(2,2-difluoroethyl)-1H-pyrazol-4-yl)ethynyl)-4-(4-((dimethylamino)methyl)-4-methylpiperidin-1-yl)pyridin-2-yl)pyrimidin-4-amine] | 1.5 | 11.5 | 0.8 | 0.7 | 0.1 | 0.3 | 5 | 2690 | 0.1 | 0.3
CN(C)CCC1CCN(c2cc(Nc3ccnc(-c4cnn(S(=O)(=O)C5CC5)c4)n3)ncc2C#Cc2cnn(CC(F)F)c2)CC1 [Example 303, 2-(1-(Cyclopropylsulfonyl)-1H-pyrazol-4-yl)-N-(5-((1-(2,2-difluoroethyl)-1H-pyrazol-4-yl)ethynyl)-4-(4-(2-(dimethylamino)ethyl)piperidin-1-yl)pyridin-2-yl)pyrimidin-4-amine] | 0.6 | 3.4 | 0.4 | 0.3 | 0.1 | 0.2 | 1.4 | 206 | 0.1 | 0.3
O=S(=O)(C1CC1)n1cc(-c2nccc(Nc3cc(N[C@H]4CC[C@](O)(CO)CC4)c(C#Cc4cnn(C(F)F)c4)cn3)n2)cn1 [Example 304, (1s,4s)-4-((2-((2-(1-(Cyclopropylsulfonyl)-1H-pyrazol-4-yl)pyrimidin-4-yl)amino)-5-((1-(difluoromethyl)-1H-pyrazol-4-yl)ethynyl)pyridin-4-yl)amino)-1-(hydroxymethyl)cyclohexan-1-ol] | – | 103 | – | 64 | – | 5.3 | – | > 10000 | – | 2.7
CC1(CO)CCN(c2cc(Nc3ccnc(-c4cnn(S(=O)(=O)C5CC5)c4)n3)ncc2C#Cc2cnn(C(F)F)c2)CC1 [Example 305, (1-(2-((2-(1-(Cyclopropylsulfonyl)-1H-pyrazol-4-yl)pyrimidin-4-yl)amino)-5-((1-(difluoromethyl)-1H-pyrazol-4-yl)ethynyl)pyridin-4-yl)-4-methylpiperidin-4-yl)methanol] | 0.8 | 5.4 | 0.6 | 2.4 | 0.5 | 0.9 | – | 1520 | 1.3 | 1
O=S(=O)(C1CC1)n1cc(-c2nccc(Nc3cc(NC[C@H]4CC[C@@H](O)C4)c(C#Cc4cnn(C(F)F)c4)cn3)n2)cn1 [Example 306, (1R,3S)-3-(((2-((2-(1-(Cyclopropylsulfonyl)-1H-pyrazol-4-yl)pyrimidin-4-yl)amino)-5-((1-(difluoromethyl)-1H-pyrazol-4-yl)ethynyl)pyridin-4-yl)amino)methyl)cyclopentan-1-ol] | 4.3 | 6.8 | 3.4 | 4.6 | 0.4 | 3.9 | 14.6 | > 10000 | 1 | 1.6
O=S(=O)(C1CC1)n1cc(-c2nccc(Nc3cc(NC[C@H]4CC[C@H](O)CC4)c(C#Cc4cnn(C(F)F)c4)cn3)n2)cn1 [Example 307, (1r,4r)-4-(((2-((2-(1-(Cyclopropylsulfonyl)-1H-pyrazol-4-yl)pyrimidin-4-yl)amino)-5-((1-(difluoromethyl)-1H-pyrazol-4-yl)ethynyl)pyridin-4-yl)amino)methyl)cyclohexan-1-ol] | 21.3 | 44.2 | 17.2 | 37.3 | 0.3 | 35.1 | 87.7 | > 10000 | 14.7 | 29.6
